{"source": "patent US20210186984A1", "about": "“CERTAIN (2S)-N-[(1S)-1-CYANO-2-PHENYLETHYL]-1,4-OXAZEPANE-2-CARBOXAMIDES FOR TREATING ANCA ASSOCIATED VASCULITIDES” (Insmed Incorporated, priority 2018, published 2021)", "key": {"surface PR3": {"tested_on": "surface PR3", "test": "Fluorescence microscopy of surface PR3 on neutrophils differentiated in presence of INS1007", "assay_type": "cell-based, human", "settings": "differentiation in the presence of 10 μM; neutrophils derived from bone marrow and umbilical cord stem cells (both cell types)", "procedure": "To evaluate the pharmacological effects of INS1007 on surface PR3 expression, total PR3 expression, and NSP activity, stem cells were differentiated to neutrophils in the presence of INS1007 at increasing concentrations. Primary bone marrow (BM) or umbilical cord blood (UC) derived CD34^+ neutrophil progenitor cells (AllCells; Alameda, Calif.) were cultured for 7 days in STEMSPAN™ SFEM media (Stemcell Technologies; Tukwila, WA) supplemented with recombinant human Stem Cell Factor (Peprotech; Rocky Hill, NJ) and recombinant human IL-3 (Peprotech). The cells were differentiated in culture for another 7 days in STEMSPAN™ SFEM media (Stemcell Technologies) with recombinant human Granulocyte Colony Stimulating Factor (Peprotech), plus increasing concentrations of INS1007 (0-10 μM). […]\nIn a separate experiment, neutrophils were harvested, stained for 30 min. with either a mouse anti-PR3 monoclonal antibody (Abcam; Cambridge, Mass.) or a mouse monoclonal IgG isotype control (Abcam), followed by a Cy5-conjugated goat anti-mouse IgG secondary antibody (Abcam), fixed in 4% formaldehyde, and mounted to glass slides with PROLONGTM Diamond Antifade Mountant with DAPI (Thermo Fisher; Waltham, Mass.). Samples were imaged with an Axio fluorescence microscope (Zeiss; Oberkochen, Germany) using constant settings while imaging samples from different treatment conditions."}, "total proteinase 3 (PR3)": {"tested_on": "total proteinase 3 (PR3)", "test": "Flow cytometry of total (surface and intracellular) PR3 expression in differentiated neutrophils", "assay_type": "cell-based, human", "procedure": "To evaluate the pharmacological effects of INS1007 on surface PR3 expression, total PR3 expression, and NSP activity, stem cells were differentiated to neutrophils in the presence of INS1007 at increasing concentrations. Primary bone marrow (BM) or umbilical cord blood (UC) derived CD34^+ neutrophil progenitor cells (AllCells; Alameda, Calif.) were cultured for 7 days in STEMSPAN™ SFEM media (Stemcell Technologies; Tukwila, WA) supplemented with recombinant human Stem Cell Factor (Peprotech; Rocky Hill, NJ) and recombinant human IL-3 (Peprotech). The cells were differentiated in culture for another 7 days in STEMSPAN™ SFEM media (Stemcell Technologies) with recombinant human Granulocyte Colony Stimulating Factor (Peprotech), plus increasing concentrations of INS1007 (0-10 μM). At the end of the differentiation/treatment period, cells were harvested for analysis.\nDifferentiated neutrophils were harvested for flow cytometry to quantify PR3 expression on the surface of neutrophils (FIGS. 1 and 2) and neutrophil total PR3 expression (FIG. 3)."}}, "data": [{"smiles": "Cn1c(=O)oc2ccc(-c3ccc(C[C@@H](C#N)NC(=O)[C@@H]4CNCCCO4)cc3)cc21", "note": "[INS1007, (2S)-N-{(1S)-1-cyano-2-[4-(3-methyl-2-oxo-2,3-dihydro-1,3-benzoxazol-5-yl)phenyl]ethyl}-1,4-oxazepane-2-carboxamide]", "values": [{"measurement": "surface PR3 (fluorescence microscopy)", "setting": "surface PR3", "value": "markedly reduced"}, {"measurement": "total PR3 levels", "setting": "total proteinase 3 (PR3); bone marrow stem cell-derived neutrophils, not completely concentration-dependent", "value": "significantly reduced"}, {"measurement": "percentage of cells with positive total PR3 expression", "setting": "total proteinase 3 (PR3); neutrophils derived from either umbilical cord blood or bone marrow stem cells", "value": "did not reduce"}, {"measurement": "total PR3 levels", "setting": "total proteinase 3 (PR3); umbilical cord blood stem cell-derived neutrophils", "value": "did not reach statistically significant reduction"}]}]}
